According to ChEMBL document CHEMBL1201861, “Genomics of Drug Sensitity in Cancer screening data, Wellcome Trust Sanger Institute”:

Columns and labels:
Assay in all cases: cells
D-336MG = type: functional, cell-based, Homo sapiens; details: Homo sapiens, D-336MG
Description: SANGER: Inhibition of human D-336MG cell growth in a cell viability assay.

DU-145 = type: functional, cell-based, Homo sapiens; details: Homo sapiens, DU-145
Description: SANGER: Inhibition of human DU-145 cell growth in a cell viability assay.

Detroit 562 = type: functional, cell-based, Homo sapiens; details: Homo sapiens, Detroit 562
Description: SANGER: Inhibition of human Detroit562 cell growth in a cell viability assay.

EFO-27 = type: functional, cell-based, Homo sapiens; details: Homo sapiens, EFO-27
Description: SANGER: Inhibition of human EFO-27 cell growth in a cell viability assay.

ETK-1 = type: functional, cell-based, Homo sapiens; details: Homo sapiens, ETK-1
Description: SANGER: Inhibition of human ETK-1 cell growth in a cell viability assay.

EW-3 = type: functional, cell-based; details: Homo sapiens
Description: SANGER: Inhibition of human EW-3 cell growth in a cell viability assay.

GCIY = type: functional, cell-based, Homo sapiens; details: Homo sapiens, GCIY
Description: SANGER: Inhibition of human GCIY cell growth in a cell viability assay.

HCC1395 = type: functional, cell-based, Homo sapiens; details: Homo sapiens, HCC1395
Description: SANGER: Inhibition of human HCC1395 cell growth in a cell viability assay.

HCC2157 = type: functional, cell-based; details: Homo sapiens
Description: SANGER: Inhibition of human HCC2157 cell growth in a cell viability assay.

HSC-3 = type: functional, cell-based, Homo sapiens; details: Homo sapiens, HSC-3
Description: SANGER: Inhibition of human HSC-3 cell growth in a cell viability assay.

HT-1376 = type: functional, cell-based, Homo sapiens; details: Homo sapiens, HT-1376
Description: SANGER: Inhibition of human HT-1376 cell growth in a cell viability assay.

HT-3 = type: functional, cell-based, Homo sapiens; details: Homo sapiens, HT-3
Description: SANGER: Inhibition of human HT-3 cell growth in a cell viability assay.

HTC-C3 = type: functional, cell-based, Homo sapiens; details: Homo sapiens, HTC-C3
Description: SANGER: Inhibition of human HTC-C3 cell growth in a cell viability assay.

Hs-578T = type: functional, cell-based, Homo sapiens; details: Homo sapiens, Hs-578T
Description: SANGER: Inhibition of human Hs-578-T cell growth in a cell viability assay.

K562 = type: functional, cell-based; details: Homo sapiens
Description: SANGER: Inhibition of human K-562 cell growth in a cell viability assay.

LB831-BLC = type: functional, cell-based, Homo sapiens; details: Homo sapiens, LB831-BLC
Description: SANGER: Inhibition of human LB831-BLC cell growth in a cell viability assay.

LU-139 = type: functional, cell-based; details: Homo sapiens
Description: SANGER: Inhibition of human LU-139 cell growth in a cell viability assay.

MDA-MB-157 = type: functional, cell-based, Homo sapiens; details: Homo sapiens, MDA-MB-157
Description: SANGER: Inhibition of human MDA-MB-157 cell growth in a cell viability assay.

MDA-MB-231 = type: functional, cell-based, Homo sapiens; details: Homo sapiens, MDA-MB-231
Description: SANGER: Inhibition of human MDA-MB-231 cell growth in a cell viability assay.

MDA-MB-453 = type: functional, cell-based, Homo sapiens; details: Homo sapiens, MDA-MB-453
Description: SANGER: Inhibition of human MDA-MB-453 cell growth in a cell viability assay.

MKN-1 = type: functional, cell-based, Homo sapiens; details: Homo sapiens, MKN-1
Description: SANGER: Inhibition of human MKN1 cell growth in a cell viability assay.

MV4-11 = type: functional, cell-based, MV-4-11; details: Homo sapiens
Description: SANGER: Inhibition of human MV-4-11 cell growth in a cell viability assay.

NB69 = type: functional, cell-based, Homo sapiens; details: Homo sapiens, NB69
Description: SANGER: Inhibition of human NB69 cell growth in a cell viability assay.

NCI-H1581 = type: functional, cell-based, Homo sapiens; details: Homo sapiens, NCI-H1581
Description: SANGER: Inhibition of human NCI-H1581 cell growth in a cell viability assay.

NCI-H1838 = type: functional, cell-based, Homo sapiens; details: Homo sapiens, NCI-H1838
Description: SANGER: Inhibition of human NCI-H1838 cell growth in a cell viability assay.

NCI-H441 = type: functional, cell-based; details: Homo sapiens
Description: SANGER: Inhibition of human NCI-H441 cell growth in a cell viability assay.

NCI-H596 = type: functional, cell-based, Homo sapiens; details: Homo sapiens, NCI-H596
Description: SANGER: Inhibition of human NCI-H596 cell growth in a cell viability assay.

NEC8 = type: functional, cell-based, Homo sapiens; details: Homo sapiens, NEC8
Description: SANGER: Inhibition of human NEC8 cell growth in a cell viability assay.

NTERA-2-cl-D1 = type: functional, cell-based, Homo sapiens; details: Homo sapiens, NTERA-2-cl-D1
Description: SANGER: Inhibition of human NTERA-S-cl-D1 cell growth in a cell viability assay.

OE19 = type: functional, cell-based, Homo sapiens; details: Homo sapiens, OE19
Description: SANGER: Inhibition of human OE19 cell growth in a cell viability assay.

PC-3 = type: functional, cell-based, Homo sapiens; details: Homo sapiens, PC-3
Description: SANGER: Inhibition of human PC-3 cell growth in a cell viability assay.

PSN1 = type: functional, cell-based, Homo sapiens; details: Homo sapiens, PSN1
Description: SANGER: Inhibition of human PSN1 cell growth in a cell viability assay.

SBC-1 = type: functional, cell-based; details: Homo sapiens
Description: SANGER: Inhibition of human SBC-1 cell growth in a cell viability assay.

SCC-15 = type: functional, cell-based, Homo sapiens; details: Homo sapiens, SCC-15
Description: SANGER: Inhibition of human SCC-15 cell growth in a cell viability assay.

SCC-9 = type: functional, cell-based, Homo sapiens; details: Homo sapiens, SCC-9
Description: SANGER: Inhibition of human SCC-9 cell growth in a cell viability assay.

SK-OV-3 = type: functional, cell-based, Homo sapiens; details: Homo sapiens, SK-OV-3
Description: SANGER: Inhibition of human SK-OV-3 cell growth in a cell viability assay.

SW1463 = type: functional, cell-based, Homo sapiens; details: Homo sapiens, SW1463
Description: SANGER: Inhibition of human SW1463 cell growth in a cell viability assay.

SW626 = type: functional, cell-based, Homo sapiens; details: Homo sapiens, SW626
Description: SANGER: Inhibition of human SW626 cell growth in a cell viability assay.

T98G = type: functional, cell-based, Homo sapiens; details: Homo sapiens, T98G
Description: SANGER: Inhibition of human T98G cell growth in a cell viability assay.

A253 cell line = type: functional, cell-based, Homo sapiens; details: Homo sapiens, A253
Description: SANGER: Inhibition of human A253 cell growth in a cell viability assay.

A3-KAW = type: functional, cell-based; details: Homo sapiens
Description: SANGER: Inhibition of human A3-KAW cell growth in a cell viability assay.

ALL-PO = type: functional, cell-based; details: Homo sapiens
Description: SANGER: Inhibition of human ALL-PO cell growth in a cell viability assay.

BE-13 = type: functional, cell-based; details: Homo sapiens
Description: SANGER: Inhibition of human BE-13 cell growth in a cell viability assay.

BFTC-905 = type: functional, cell-based, Homo sapiens; details: Homo sapiens, BFTC-905
Description: SANGER: Inhibition of human BFTC-905 cell growth in a cell viability assay.

BT-20 = type: functional, cell-based, Homo sapiens; details: Homo sapiens, BT-20
Description: SANGER: Inhibition of human BT-20 cell growth in a cell viability assay.

C-33-A = type: functional, cell-based, Homo sapiens; details: Homo sapiens, C-33-A
Description: SANGER: Inhibition of human C-33-A cell growth in a cell viability assay.

CAL-72 = type: functional, cell-based, Homo sapiens; details: Homo sapiens, CAL-72
Description: SANGER: Inhibition of human CAL-72 cell growth in a cell viability assay.

CAL-85-1 = type: functional, cell-based; details: Homo sapiens
Description: SANGER: Inhibition of human CAL-85-1 cell growth in a cell viability assay.

U-251 = type: functional, cell-based, Homo sapiens; details: Homo sapiens, U-251
Description: SANGER: Inhibition of human U251 cell growth in a cell viability assay.

UACC-62 = type: functional, cell-based, Homo sapiens; details: Homo sapiens, UACC-62
Description: SANGER: Inhibition of human UACC-62 cell growth in a cell viability assay.

## COc1ccc(C2=N[C@@H](c3ccc(Cl)cc3)[C@@H](c3ccc(Cl)cc3)N2C(=O)N2CCNC(=O)C2)c(OC(C)C)c1 [NUTLIN-3]
D-336MG
  IC50: > 8 µM
DU-145
  IC50: > 8 µM
Detroit 562
  IC50: > 8 µM
EFO-27
  IC50: > 8 µM
ETK-1
  IC50: > 8 µM
EW-3
  IC50: > 8 µM
GCIY
  IC50: > 8 µM
HCC1395
  IC50: > 8 µM
HCC2157
  IC50: > 8 µM
HSC-3
  IC50: > 8 µM
HT-1376
  IC50: > 8 µM
HT-3
  IC50: > 8 µM
HTC-C3
  IC50: > 8 µM
Hs-578T
  IC50: > 8 µM
K562
  IC50: > 8 µM
LB831-BLC
  IC50: > 8 µM
LU-139
  IC50: > 8 µM
MDA-MB-157
  IC50: > 8 µM
MDA-MB-231
  IC50: > 8 µM
MDA-MB-453
  IC50: > 8 µM
MKN-1
  IC50: > 8 µM
MV4-11
  IC50: 0.612 µM
NB69
  IC50: 2.65 µM
NCI-H1581
  IC50: > 8 µM
NCI-H1838
  IC50: > 8 µM
NCI-H441
  IC50: > 8 µM
NCI-H596
  IC50: > 8 µM
NEC8
  IC50: 1.22 µM
NTERA-2-cl-D1
  IC50: > 8 µM
OE19
  IC50: > 8 µM
PC-3
  IC50: > 8 µM
PSN1
  IC50: > 8 µM
SBC-1
  IC50: > 8 µM
SCC-15
  IC50: > 8 µM
SCC-9
  IC50: > 8 µM
SK-OV-3
  IC50: > 8 µM
SW1463
  IC50: > 8 µM
SW626
  IC50: > 8 µM
T98G
  IC50: > 8 µM
A253 cell line
  IC50: > 8 µM
A3-KAW
  IC50: 2.62 µM
ALL-PO
  IC50: > 8 µM
BE-13
  IC50: > 8 µM
BFTC-905
  IC50: > 8 µM
BT-20
  IC50: > 8 µM
C-33-A
  IC50: > 8 µM
CAL-72
  IC50: > 8 µM
CAL-85-1
  IC50: > 8 µM
U-251
  IC50: > 8 µM
UACC-62
  IC50: > 8 µM
